Test results published in patent US20260028334A1, “N-(3-(BENZO[B]THIOPHENE-2-CARBOXAMIDO)-PHENYL)-2,3-DIHYDROBENZO[B][1,4]DIOXINE-6-CARBOXAMIDE DERIVATIVES AND RELATED COMPOUNDS AS LACTATE/ATP PRODUCTION INHIBITORS FOR THE TREATMENT OF CANCER” (WMT Aktiengesellschaft, priority 2022, published 2026).

Experiments:
Assay type in all cases: cell-based
[1] = tested on: Panc02 and SKOV3 cells; test: Assay for inhibition of ATP production (FIGS. 8A and 8B); conditions: 48 hours treatment, 1.5 to 10000 nM
Experimental: The assay determines the amount of ATP in cells in culture.
Cells were plated at 4,000 per well in 96-well plate in a medium of high glucose DMEM (PAN) supplemented with 10% FBS (PAN), 2 mM glutamine-alanine (PAN), 2 mM pyruvate (Sigma) and 10 mL/L penicillin-streptomycin and grown at 37° C. in 0.5% O2, 5% CO2 and 75% humidity. For hypoxia, cells were grown and treated in the Whitley H35 Hypoxystation (Don Whitley Scientific) at 37° C. in 0.5% O2, 5% CO2 and 75% humidity. The next day, cells were induced with test compounds (FIG. 1: compounds of examples 3/16, 3/8, 10 at 10000, 3333, 1111, 370, 123, 41, 14, 5 and 1.5 nM; FIGS. 8A and 8B: compounds of example 3/19, 30 and 30/2 at 10000, 3333, 1111, 370, 123, 41, 14, 5 and 1.5 nM), as well as with vehicle (DMSO) only, for 48 hours. After this time, the medium was removed from the cells and intracellular ATP levels were determined using the Promega CellTiter-Glo 2.0 assay protocol (Promega, G9241). To estimate the effect of compounds on the ATP production, sample values were compared to the values of DMSO only. IC50 values were generated by plotting the luciferase counts against compound concentration.

[2] = molecular target: p70-S6K (Thr389) (Homo sapiens (Human), UniProt P23443); test: Western Blot analysis of p70-S6K phosphorylation; conditions: HeLa cells, 24 hours, 10, 30 and 100 nM, also with Bafilomycin A, normoxic condition, FIG. 5
Experimental: Western Blot analysis was used to detect amounts of specific protein in differently treated cells. Proteins are separated by size, transferred onto a nitrocellulose membrane and incubated with protein specific antibodies. The density of the observed band is proportional to the amount of the specific protein inside the cell.
Cells were plated at 4×10^6 (for hypoxia) or 3×10^6 (for normoxia) cells per […] plate in medium of high glucose DMEM (PAN) supplemented with 10% FBS (PAN), 2 mM glutamine-alanine (PAN), 2 mM pyruvate (Sigma) and 10 ml/L penicillin-streptomycin (PAN), and grown at 37° C. in 0.5% O2, 5% CO2 and 75% humidity. For hypoxia, cells were grown and treated in the Whitley H35 Hypoxystation (Don Whitley Scientific) at 37° C. in 0.5% O2, 5% CO2 and 75% humidity. Next day, the cells were treated with test compounds (FIG. 4: compounds of example 3/8 and 10 at concentrations 0.1, 0.3 and 1 μM, Bafilomycin A at 20 nM; FIG. 5: compounds of example 3/16, 3/8 and 10 at concentrations 10, 30 and 100 nM, Bafilomycin A at 20 nM), as well as with vehicle (DMSO) only, for 24 h. […] Protein concentration of the sample was measured using the DC Protein Assay Kit (Biorad, 5000112), 22 μg of protein extract per well was loaded onto a precast SDS page gel (Biorad, 1704273). […] The chemiluminescence was measured using chemiluminescent substrate (#34580, Thermo Scientific).

[3] = tested on: ER stress markers CHAC, CHOP/DDIT3, XBP1 and SLC7A11; test: Gene expression analysis by qPCR (FIG. 3); conditions: HeLa, 4T1, LLC1, A549, MDA-MB-231 and MiaPaCa2 cells, 10 nM, 0.5, 1, 2 and 4 hours
Experimental: Cells were plated at 40,000 cells per ml in medium of high glucose DMEM (PAN) supplemented with 10% FBS (PAN), 2 mM glutamine-alanine (PAN), 2 mM pyruvate (Sigma) and 10 mL/L penicillin-streptomycin (PAN), and grown at 37° C. in 0.5% O2, 5% CO2 and 75% humidity. Next day, cells were induced with test compounds (FIG. 3: compounds of example 3/16, 3/8, 10 at 10 nM; FIG. 8E-8AB: compounds of example 3/16, 3/8, 10, 3/19, 30 and 30/2 at 10 nM) 0.5, 1, 2 and 4 hours, as well as with vehicle (DMSO) only. After this time, the cells were lysed according to protocol (Promega, SV 96 Total RNA Isolation System, #Z3505). After transferring the lysate to a 96-well-RNA binding plate, RNA was isolated and put at approx. 1 μg into cDNA synthesis using LunaScript RT SuperMix Kit (NEB, #E3010). The resulting cDNA was diluted 1:5 and used for qPCR Analysis (Taqman). Luna Universal Probe qPCR Master Mix (NEB, #M3004) is used as 2× reaction mix to which the diluted cDNA is added. The qPCR analysis was performed using QuantStudio™ 6 Flex real-time PCR systems (Thermo Fisher Scientific).
A set of primers plus probe for each gene of interest was purchased at IDT (Integrated DNA Technologies).

Structure (SMILES)	ATP production level [1]	p70-S6K phosphorylation (Thr389) [2]	ER stress markers CHAC, CHOP/DDIT3, XBP1 and SLC7A11 [3]
Cc1ccc(NC(=O)c2ccc3c(c2)OCCO3)cc1NC(=O)c1cc2cccnc2s1 [3/16]	dose-dependent reduction	dose-dependent induction	time-dependent upregulation
O=C(Nc1ccc(F)c(NC(=O)c2cc3ccc(OCCCN4CCCC4)cc3s2)c1)c1ccc2c(c1)OCCO2 [3/8]	dose-dependent reduction	dose-dependent induction	time-dependent upregulation
